The values that follow come from publication PMC11530827, “Characterization of a cytochrome P450 that catalyzes the O-demethylation of lignin-derived benzoates” (The Journal of Biological Chemistry, 2024).

SMILES strings stand for the structures. pKd: −log10 of the molar value. Like-named read-outs stand apart in the source and are kept apart here.

What is called pKd is the negative decadic logarithm of the Kd, by convention in mol/L.

For test [1], the target named is T1, PbdA (Rhodococcus jostii, UniProt Q0SCI3).
T1 sequence (Q0SCI3 1-400): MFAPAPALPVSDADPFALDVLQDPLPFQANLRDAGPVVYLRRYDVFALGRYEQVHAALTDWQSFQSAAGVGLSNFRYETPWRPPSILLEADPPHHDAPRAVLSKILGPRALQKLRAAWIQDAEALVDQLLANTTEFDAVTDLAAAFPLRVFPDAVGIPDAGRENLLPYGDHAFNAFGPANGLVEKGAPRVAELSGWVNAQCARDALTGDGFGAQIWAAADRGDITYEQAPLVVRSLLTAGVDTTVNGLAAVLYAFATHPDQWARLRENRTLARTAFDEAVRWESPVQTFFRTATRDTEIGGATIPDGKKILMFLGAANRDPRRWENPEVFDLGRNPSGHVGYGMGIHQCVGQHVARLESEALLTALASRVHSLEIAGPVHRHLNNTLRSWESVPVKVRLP
As to conditions: WT PbdAB; for Coupling: ratio of aromatic turnover rate to NADH oxidation rate. The method, then:
We then measured coupling under optimum conditions for other substrates. […] Finally, we measured the apparent steady-state kinetic parameters of the PbdA reaction under conditions of maximal coupling (Fig. S4).
For activity measurements 0.25 to 1 μM of PbdA and PbdB were combined in a 200 μl cuvette in 20 mM Mops, pH 7.2 with substrate diluted in the same buffer. NADH was added to 350 μM to initiate the reaction. For HPLC analysis, enzymatic reactions were acidified by adding acetic acid to 10% final concentration, centrifuged (16,000×g for 10 min), and filtered through a 0.2 μm polytetrafluoroethylene membrane. Samples were run over a Luna 5 μm C18(2) 100 Å 150 × 3 mm column (Phenomenex) at 0.7 ml min^−1 by a Waters 2695 separation HPLC module. Samples were eluted with a 16.8 ml linear gradient from 1% methanol plus 0.1% formic acid in water to 100% methanol plus 0.1% formic acid and monitored at 280 nm with a Waters 2996 photodiode array detector. Concentrations were determined by interpolation on a standard curve of 0 to 1 mM of authentic standard. NADH concentration was measured by absorbance at 340 nm, ε = 6.22 mM^-1 cm^-1. Coupling was calculated from the ratio of rate of aromatic turnover, as determined by HPLC, and the rate of NADH oxidation, determined spectroscopically. Buffer ionic strength was adjusted by addition of NaCl, as appropriate. Apparent steady-state kinetic parameters were calculated by fitting Michaelis–Menten equations to initial velocity of reactions at various concentrations of aromatic substrate (LEONORA).

The next test relates to CYP199A2. Further details: method as in PMID 20024082. As to conditions: cited from earlier work.
In test [2] the target is T1, PbdA. Put plainly: Substrate binding to PbdA (WT) by type I spectral shift titration. Further details: hexaHis (N, cleaved yes); made in house; host or cells: PbdA: E. coli BL-21 λ (DE3); PbdB: Rhodococcus jostii RHA1. The method, then:
The affinity of PbdA for various LDACs was measured by the type I spectral shift upon titration of aromatic compound (Fig. 2). This shift occurs as the compound displaces a water coordinated to the heme iron, initiating a spin state transition in the latter from a low spin, hexacoordinate, to a high spin, pentacoordinate form.
Figure 2 Substrate binding of PbdA. A, difference spectra of PbdA titrated with 1 to 50 μM p-MBA from the substrate-free enzyme. Darker colors indicate higher concentration of p-MBA. Spectra were collected after each addition of substrate to 1 μM enzyme in 20 mM Mops, I = 0.1 M, pH 7.2. B, binding isotherm of PbdA and p-MBA. The fitted curve represents a simple hyperbola. p-MBA, para-methoxybenzoate.
UV-visible spectroscopy was conducted with a Cary 60 spectrophotometer equipped with a thermostatted cuvette holder at 25 °C. Scans of purified proteins diluted in 20 mM Mops, I = 0.1 M, pH 7.2 were taken between 250 and 700 nm. Heme concentration was calculated as described previously ([35]). Carbon monoxide binding was determined by reduction of PbdA diluted in 20 mM Mops, I = 0.1 M, pH 7.2 as above by a few grains of […]. CO was bubbled into the reduced enzyme for approximately 60 s at a rate of one bubble per second. Dissociation constants (Kd) were determined by titration of ligands diluted into enzyme buffer from 1 M stocks prepared in dimethyl sulfoxide into PbdA diluted in 20 mM Mops, I = 0.1 M, pH 7.2. Spectra take upon addition of substrate were subtracted from the spectrum of the enzyme, and peak-to-trough distance was plotted by ligand concentration. Kd values were determined by fitting a hyperbolic equation to the data as described previously ([23], [36]). The proportion of high-spin heme iron was determined using the approximate peak-to-trough extinction coefficient (ε ≈ 100 mM^−1 cm^−1) ([36]).

`COc1ccc(C(=O)O)cc1OC` [Veratrate, veratrate]: the NADH depletion rate at PbdA [1] (air-saturated MOPS (I = 0.1 M), pH 7.2, 25 °C, SD in parentheses) is on record as 2830 (50) U mg P450^-1. In addition, the “Rate of Aromatic turnover” value on PbdA [1] (appearance of O-demethylated product (disappearance of p-EB), SD in parentheses) was 2030 (60) U mg P450^-1. For the same compound, the Coupling on PbdA [1] was 72 (3) %; at PbdA [1] (listed as veratrate) it was “approximately 75%”. For the same compound, the Turnover of substrate result in the test with CYP199A2 is on record as “did not detectibly turn over”. Moreover, the pKd on PbdA [2] was 4.74. Also, the “%High-spin (percent of heme iron in high-spin state)” value at PbdA [2] (WT PbdA, on substrate binding) is recorded as 84%.
